The results in this text go back to EP3057951B1, “METHYLENE LINKED QUINOLINYL MODULATORS OF ROR-GAMMA-T” (Janssen Pharmaceutica NV, priority 2013, dated 2015).

SMILES strings stand for the structures. Structures can show the parent of a compound that is named as a salt.

The test deals with T1, wild type human RORγt ligand binding domain (RORyt LBD) (Homo sapiens, UniProt P51449).
T1 construct: His-tag (N); TurboTEV protease cleavage site (ENLYFQG) (N); made in house; host or cells: E. coli (pHIS1, modified pET vector)
T1 sequence (P51449 258-518): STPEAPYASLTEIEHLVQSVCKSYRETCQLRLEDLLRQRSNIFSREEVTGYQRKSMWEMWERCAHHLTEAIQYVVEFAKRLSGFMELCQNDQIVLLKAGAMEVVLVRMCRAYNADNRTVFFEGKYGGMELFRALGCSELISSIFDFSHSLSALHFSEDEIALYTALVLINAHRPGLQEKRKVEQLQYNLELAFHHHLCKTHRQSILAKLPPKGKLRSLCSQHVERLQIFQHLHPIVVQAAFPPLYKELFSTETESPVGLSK
The test can be described thus: RORγt ThermoFluor assay (thermal shift, binding affinity KD). (In general: DSF heats the sample and reads unfolding from a dye or from intrinsic fluorescence.)
One may read the Kd as the free concentration of one partner at which half of the binding sites on the other are occupied at equilibrium, for simple one-to-one binding. Take `CCc1nc2ccc(C(O)(c3cnc(C)n3C)C3CCOCC3)cc2c(Cl)c1Cc1ccc(C(F)(F)F)cc1` (single isomer, unassigned) [Example 34b, (4-Chloro-2-ethyl-3-(4-(trifluoromethyl)benzyl)quinolin-6-yl)(1,2-dimethyl-1H-imidazol-5-yl)(tetrahydro-2H-pyran-4-yl)methanol]: the Kd was 0.03 nM.

`CCc1nc2ccc(C(O)(c3cnc(C)n3C)C3CCOCC3)cc2c(Cl)c1Cc1ccc(C(F)(F)F)cc1` (single isomer, unassigned) [Example 34c, (4-Chloro-2-ethyl-3-(4-(trifluoromethyl)benzyl)quinolin-6-yl)(1,2-dimethyl-1H-imidazol-5-yl)(tetrahydro-2H-pyran-4-yl)methanol]: the dissociation constant (Kd) is 6.8 nM.

For `CCc1nc2ccc(C(O)(c3cnnn3C)C3CN(C(C)=O)C3)cc2c(C#N)c1Cc1ccc(C(F)(F)F)cc1` (single isomer, unassigned) [Example 36, 6-((1-Acetylazetidin-3-yl)(hydroxy)(1-methyl-1H-1,2,3-triazol-5-yl)methyl)-2-ethyl-3-(4-(trifluoromethyl)benzyl)quinoline-4-carbonitrile], the Kd came to 0.73 nM.

On to `CCc1nc2ccc(C(O)(c3cnnn3C)C3CN(C(C)=O)C3)cc2c(C#N)c1Cc1ccc(C(F)(F)F)cc1` (single isomer, unassigned) [Example 37, 6-((1-Acetylazetidin-3-yl)(hydroxy)(1-methyl-1H-1,2,3-triazol-5-yl)methyl)-2-ethyl-3-(4-(trifluoromethyl)benzyl)quinoline4-carbonitrile], for which the Kd stood at 1.9 nM.

Consider `COc1nc2ccc(C(O)(c3ccc(C)nc3C)c3cnc(C)n3C)cc2c(Cl)c1Cc1ccc(C(F)(F)F)nc1` (single isomer, unassigned) [Example 42b, (4-Chloro-2-methoxy-3-((6-(trifluoromethyl)pyridin-3-yl)methyl)quinolin-6-yl)(1,2-dimethyl-1H-imidazol-5-yl)(2,6-dimethylpyridin-3-yl)methanol], for which the Kd was 970 nM.

Consider `COc1nc2ccc(C(O)(c3ccc(C)nc3C)c3cnc(C)n3C)cc2c(Cl)c1Cc1ccc(C(F)(F)F)nc1` (single isomer, unassigned) [Example 42c, (4-Chloro-2-methoxy-3-((6-(trifluoromethyl)pyridin-3-yl)methyl)quinolin-6-yl)(1,2-dimethyl-1H-imidazol-5-yl)(2,6-dimethylpyridin-3-yl)methanol], for which the Kd came out at 0.18 nM.

Turning to `COc1nc2ccc(C(O)(c3ccc(C)nc3C)c3cnc(C)n3C)cc2c(Cl)c1Cc1ccc(C(F)(F)F)cc1` (single isomer, unassigned) [Example 57b, (4-Chloro-2-methoxy-3-(4-(trifluoromethyl)benzyl)quinolin-6-yl)(1,2-dimethyl-1H-imidazol-5-yl)(2,6-dimethylpyridin-3-yl)methanol], the Kd came to 180 nM.

In the case of `COc1nc2ccc(C(O)(c3ccc(C)nc3C)c3cnc(C)n3C)cc2c(Cl)c1Cc1ccc(C(F)(F)F)cc1` (single isomer, unassigned) [Example 57c, (4-Chloro-2-methoxy-3-(4-(trifluoromethyl)benzyl)quinolin-6-yl)(1,2-dimethyl-1H-imidazol-5-yl)(2,6-dimethylpyridin-3-yl)methanol], the Kd was 0.02 nM.

Take `COc1nc2ccc(C(O)(c3ccccn3)c3cncn3C)cc2c(Cl)c1Cc1ccc(S(C)(=O)=O)cc1` (single isomer, unassigned) [Example 58b, (4-Chloro-2-methoxy-3-(4-(methylsulfonyl)benzyl)quinolin-6-yl)(1-methyl-1H-imidazol-5-yl)(pyridin-2-yl)methanol]: the equilibrium dissociation constant (Kd) was determined as 3600 nM.

In the case of `COc1nc2ccc(C(O)(c3ccccn3)c3cncn3C)cc2c(Cl)c1Cc1ccc(S(C)(=O)=O)cc1` (single isomer, unassigned) [Example 58c, (4-Chloro-2-methoxy-3-(4-(methylsulfonyl)benzyl)quinolin-6-yl)(1-methyl-1H-imidazol-5-yl)(pyridin-2-yl)methanol], the Kd stood at 370 nM.

Turning to `COc1nc2ccc(C(O)(c3ccccn3)c3cncn3C)cc2c(Cl)c1Cc1cc2ccccc2s1` (single isomer, unassigned) [Example 59b, (3-(Benzo[b]thiophen-2-ylmethyl)-4-chloro-2-methoxyquinolin-6-yl)(1-methyl-1H-imidazol-5-yl)(pyridin-2-yl)methanol], the Kd was 34 nM.

On to `COc1nc2ccc(C(O)(c3ccccn3)c3cncn3C)cc2c(Cl)c1Cc1cc2ccccc2s1` (single isomer, unassigned) [Example 59c, (3-(Benzo[b]thiophen-2-ylmethyl)-4-chloro-2-methoxyquinolin-6-yl)(1-methyl-1H-imidazol-5-yl)(pyridin-2-yl)methanol], for which the Kd was 800 nM.

In the case of `COc1nc2ccc(C(O)(c3ccc(C(F)(F)F)nc3)c3cnnn3C)cc2c(Cl)c1Cc1ccc(C(F)(F)F)cc1` (single isomer, unassigned) [Example 75b, (4-Chloro-2-methoxy-3-(4-(trifluoromethyl)benzyl)quinolin-6-yl)(1-methyl-1H-1,2,3-triazol-5-yl)(6-(trifluoromethyl)pyridin-3-yl)methanol], the Kd came out at 6.8 nM.

With `COc1nc2ccc(C(O)(c3ccc(C(F)(F)F)nc3)c3cnnn3C)cc2c(Cl)c1Cc1ccc(C(F)(F)F)cc1` (single isomer, unassigned) [Example 75c, (4-Chloro-2-methoxy-3-(4-(trifluoromethyl)benzyl)quinolin-6-yl)(1-methyl-1H-1,2,3-triazol-5-yl)(6-(trifluoromethyl)pyridin-3-yl)methanol], the Kd was 2.5 nM.

For `COc1nc2ccc(C(O)(c3cnc(C)n3C)C3CCOCC3)cc2c(Cl)c1Cc1ccc(C(F)(F)F)cc1` (single isomer, unassigned) [Example 86b, (4-Chloro-2-methoxy-3-(4-(trifluoromethyl)benzyl)quinolin-6-yl)(1,2-dimethyl-1H-imidazol-5-yl)(tetrahydro-2H-pyran-4-yl)methanol], the Kd worked out at 27 nM.

For `COc1nc2ccc(C(O)(c3cnc(C)n3C)C3CCOCC3)cc2c(Cl)c1Cc1ccc(C(F)(F)F)cc1` (single isomer, unassigned) [Example 86c, (4-Chloro-2-methoxy-3-(4-(trifluoromethyl)benzyl)quinolin-6-yl)(1,2-dimethyl-1H-imidazol-5-yl)(tetrahydro-2H-pyran-4-yl)methanol], the Kd is 0.06 nM.

As to `COc1nc2ccc(C(O)(c3cnnn3C)C3CN(C)C3)cc2c(Cl)c1Cc1ccc(C(F)(F)F)cc1` (single isomer, unassigned) [Example 90b, (4-Chloro-2-methoxy-3-(4-(trifluoromethyl)benzyl)quinolin-6-yl)(1-methyl-1H-1,2,3-triazol-5-yl)(1-methylazetidin-3-yl)methanol], the Kd is 580 nM.

Regarding `COc1nc2ccc(C(O)(c3cnnn3C)C3CN(C)C3)cc2c(Cl)c1Cc1ccc(C(F)(F)F)cc1` (single isomer, unassigned) [Example 90c, (4-Chloro-2-methoxy-3-(4-(trifluoromethyl)benzyl)quinolin-6-yl)(1-methyl-1H-1,2,3-triazol-5-yl)(1-methylazetidin-3-yl)methanol], the Kd came to 3.4 nM.

As to `COc1nc2ccc(C(O)(C3CN(C(C)=O)C3)C3CN(C(C)=O)C3)cc2c(Cl)c1Cc1ccc(C(F)(F)F)cc1` [Example 3, 1,1'-(3,3'-((4-Chloro-2-methoxy-3-(4-(trifluoromethyl)benzyl)quinolin-6-yl)(hydroxy)methylene)bis(azetidine-3,1-diyl))diethanone], the Kd is 46 nM.

As to `CCc1nc2ccc(C(O)(c3cnc(C)n3C)c3cnc(C)n3C)cc2c(Cl)c1Cc1ccc(C(F)(F)F)cc1` [Example 4, (4-Chloro-2-ethyl-3-(4-(trifluoromethyl)benzyl)quinolin-6-yl)bis(1,2-dimethyl-1H-imidazol-5-yl)methanole•TFA], the Kd was determined as 0.006 nM.

In the case of `COc1nc2ccc(C(O)(c3cnc(C)n3C)c3cnc(C)n3C)cc2c(Cl)c1Cc1cccc(C(F)(F)F)c1` [Example 5, (4-Chloro-2-methoxy-3-(3-(trifluoromethyl)benzyl)quinolin-6-yl)bis(1,2-dimethyt-1H-imidazol-5-yt)methanol•TFA], the Kd turned out to be 0.041 nM.

`COc1nc2ccc(C(O)(c3cnc(C)n3C)c3cnc(C)n3C)cc2c(Cl)c1Cc1ccccc1C(F)(F)F` [Example 6, (4-Chloro-2-methoxy-3-(2-(trifluoromethyl)benzyl)quinolin-6-yl)bis(1,2-dimethyl-1H-imidazol-5-yl)methanol•TFA]: the Kd is 0.046 nM.

`COc1nc2ccc(C(O)(c3cnc(C)n3C)c3cnc(C)n3C)cc2c(Cl)c1Cc1ccc(C(F)(F)F)s1` [Example 7, (4-Chloro-2-methoxy-3-((5-(trifluoromethyl)thiophen-2-yl)methyl)quinolin-6-yl)bis(1,2-dimethyl-1H-imidazol-5-yl)methanol•TFA]: the Kd came to 0.032 nM.

For the molecule `CCc1nc2ccc(C(O)(c3cnc(C)n3C)c3cnc(C)n3C)cc2c(C#N)c1Cc1ccc(C(F)(F)F)cc1` [Example 8, 6-(bis(1,2-Dimethyl-1H-imidazol-5-yl)(hydroxy)methyl)-2-ethyl-3-(4-(trifluoromethyl)benzyl)quinoline-4-carbonitrile.TFA], the Kd was found to be 0.009 nM.

Turning to `COc1nc2ccc(C(O)(c3cnc(C)n3C)c3cnc(C)n3C)cc2c(C#N)c1Cc1cccc(C(F)(F)F)c1` [Example 9, 6-(bis(1,2-Dimethyl-1H-imidazol-5-yl)(hydroxy)methyl)-2-methoxy-3-(3-(trifluoromethyl)benzyl)quinoline-4-carbonitrile•TFA], the Kd was 0.055 nM.
